Laboratory results from patent publication US20110190492A1, “DIAGNOSTIC PROBE FOR CONFORMATION DISEASE” (TOHOKU UNIVERSITY, priority 2005, published 2011).
Like-named read-outs stand apart in the source and are kept apart here.

Assays:
[1] = molecular target: T1, amyloid β protein (Homo sapiens, UniProt P05067); assay: Staining test on a brain section of an Alzheimer disease patient (amyloid β protein); assay type: binding, human (Alzheimer disease patient); details: 100 μM compound in 50% ethanol, 10 minutes, fluorescence microscopy
T1 construct: from tissue; host or cells: paraffin-embedded human brain sections (temporal lobe, hippocampus) of Alzheimer disease patients
Excerpt: (§1) (1) Brain specimens at the temporal lobe and the hippocampus of patients to which a definitive diagnosis of Alzheimer disease had been given, and those of normal senile persons were used. The specimens were given by our coworker, Fukushimura Hospital, Longevity Medicine Institute, and we were given their consent of use of the specimens for our study purpose by the bereaved of the patients (Fukushimura Hospital Ethical Review Board Approval No. 20).
(§2) (2) The paraffin-embedded brain tissue was cut into slices having a thickness of 6 μm or 8 μm, and extended and dried on a slide. The paraffin brain section was processed for paraffin removal in xylene twice for 10 minutes, 100% ethanol twice for 5 minutes, 90% ethanol for 5 minutes and running water for 10 minutes in that order.
(§3) (3) For pretreatment prior to the staining treatment with a compound of the invention, the sections were processed for autofluorescence removal with lipofuscin. First, the paraffin-removed sections were dipped in 0.25% KMnO4 solution for 20 minutes. These were washed with PBS, twice for 2 minutes, then dipped in 0.1% K2S2O5/oxalic acid solution for about 5 seconds, and then further washed with PBS, three times for 2 minutes.
(§4) (4) About 150 μl of a 100 μM solution of a compound of the invention dissolved in 50% ethanol was dropwise applied to the section and reacted for 10 minutes. After dipped five times in tap water, the section was entrapped with Fluor Save Reagent (Calbiochem), and analyzed through microscopy with a fluorescence microscope (Nikon, Eclipse 80i). The images were taken with a digital camera (Nikon Dxm 1200F or Photometrics' Cool SNAP ES).

[2] = system: neurofibrillary tangle; assay: Staining test on a brain section of an Alzheimer disease patient (neurofibrillary tangle); assay type: binding, human (Alzheimer disease patient); details: 100 μM compound in 50% ethanol, 10 minutes, fluorescence microscopy
Excerpt: as §1, §2, §3, §4

[3] = Acute toxicity test, intravenous administration to mice; assay type: in vivo; details: mice observed for 7 days
Procedure: The compounds of the invention were tested for their acute toxicity through intravenous administration thereof to mice. Four Crj:CD1 male mice formed one test group, and some test groups of those mice were used (the mean body weight of the mice of each group was from 31 to 32 g). A test compound was dissolved in a mixture of 1 N HCl, polyethylene glycol-400 and distilled water, or dissolved in DMSO, and then diluted with distilled water. This was administered to each mouse via its tail vein.

[4] = system: histidine-requiring Salmonella typhimurium TA100 and TA98 strains; assay: Mutagenicity test (reverse mutation test); assay type: cell-based
Procedure: In view of their use, it is desirable that the compounds of the invention have no mutagenicity or have little mutagenicity to a level causing no problem. For investigating the gene mutagenesis of the compounds of the invention, herein carried out was a reverse mutation test with histidine-requiring Salmonella typhimurium TA100 and TA98 strains. Two tests were carried out. One is a test for dose determination test; and the other is for mutagenicity.
The test methods and the mutagenicity of the compounds of the invention are mentioned below. In the dose determination test, six doses of 0.160, 0.800, 4.00, 20.0, 100 and 500 μg/plate (common ratio 5) were tried.
As a result of the dose determination test, when the mutagenicity of the test compound was admitted, then the actual test for mutagenicity was carried out, using the dose capable of giving an accurate dose-reaction curve. When no mutagenicity of the test compound was admitted in the dose determination test and when the growth inhibition of the test cells was admitted therein, then the dose to present the growth inhibition was taken as the maximum dose; and when the growth inhibition was not admitted, then a dose of 5000 μg/plate was taken as the maximum dose. With that, the actual test for mutagenicity was carried out on the level of 6 doses (common ratio 2).
First, a test compound was dissolved or suspended in DMSO, then diluted in order to prepare test compound liquids having a varying concentration.
100 μl of a test compound liquid or a negative control (DMSO) solution was put into a sterilized test tube. Then, for the case in the absence of a metabolic activation system (−S9mix), 500 μl of 0.1 mol/liter sodium-phosphate buffer (pH 7.4) was added to it; and for the case in the presence of a metabolic activation system (+S9mix), 500 μl of S9mix was added to it.
Next, 100 μl of the test strain suspension that had been cultivated with shaking at 37° C. for 8 hours was added to it, and preincubated in a shaking thermostat at 37° C. for 20 minutes. After shaken, 2 ml of top agar was added to it, and the contents were mixed.
Next, the mixture was poured onto a minimal glucose agar plate medium (plate) and spread uniformly thereon, then the top agar was solidified, and the plate was transferred into a thermostat and incubated at 37° C. for 48 hours.
Then, the number of the colonies grown through reverse mutation was counted.
For counting it, […]. After area correction and miss-counting correction, the number of the colonies was computed. When the colony analyzer could not be used owing to the deposition of the test compound or the cell growth inhibition, then the number of the colonies was counted with the naked eye.
In case where the number of the colonies through reverse mutation increased two times or more that of the negative control and where the dose dependency or the reproducibility of the increase was admitted, then the tested sample was decided as positive. When the sample was decided as positive, then the relative activity that indicates the relative comparative value of the intensity of the mutagenicity of the test compound was obtained according to the following formula:
Relative Activity={(number of colonies per plate having the concentration)−(number of colonies per negative control plate)}/the value of concentration (mg/plate).

[5] = molecular target: T2, Amyloid β protein 1-40 (Homo sapiens, UniProt P05067); assay: Fluorescence Congo red method; assay type: binding; details: 1 h, compound 10 μM, amyloid β protein 5 μM
T2 construct: Amyloid β protein 1-40 (bought from Peptide Laboratory); purchased Peptide Laboratory
Procedure: (1) Amyloid β protein 1-40 (bought from Peptide Laboratory) was dissolved in a phosphate buffer (pH 7.4) and left at 37° C. for 4 days.
(2) 50 μl of Congo red dissolved in the buffer was applied to a 96-well microplate (final concentration, 0.1, 0.3, 1 μM).
(3) 100 μl of amyloid β protein was added to it (final concentration 5 μM), and left as such for 30 minutes.
(4) 100 μl of a test compound dissolved in the buffer was added to it (final concentration, 10 and left as such for 60 minutes.
(5) Using a fluorescence microplate reader (Spectra Max 190 by Molecular Device), the sample was analyzed at the optimum exciting wavelength and the test wavelength that had been previously determined.
(6) The fluorescence intensity in the presence of the test compound, amyloid β protein and Congo red is represented by A; that in the presence of the test compound and Congo red is by B; that in the presence of the test compound and amyloid β protein is by C; and that in the presence of only the test compound is by D. The β structure recognition of the test compound is computed according to the following formula:
β structure recognition (%) of test compound={(A−B)/(C−D)}×100.

[6] = Brain permeability of [^18F]-labeled compound in mice; assay type: in vivo, male ICR mice; details: 2 minutes after intravenous administration, radioactivity
Procedure: The partitioning HPLC fraction containing [^18F]THK525, [^18F]THK702, [^18F]THK727 or [^18F]THK763, obtained through labeling production, was diluted with distilled water (about 20 mL), then loaded in Sep-Pak tC18 cartridge (by waters). The cartridge was washed with distilled water (5 to 10 mL), and then the labeled compound was eluted with EtOH (3 to 5 mL). A suitable amount of 5% Polysorbate 80/ethanol solution was added to the EtOH eluate, and the solvent was evaporated away with heating at 80° C. with a rotary evaporator. Thus obtained, a mixture of the labeled compound and Polysorbate 80 was dissolved in physiological saline, thereby preparing a labeled compound-containing physiological saline. Thus prepared, the radiochemical purity of the chemical solution was 95% or more.
[^18F]THK525, [^18F]THK702, [^18F]THK727 or […] to male ICR mice (6 to 7 weeks-age) via their tail vein. From the radioactivity deposition in the brain after 2 and 30 minutes, the brain permeability of the labeled compound was assessed. The radiochemical purity of the labeled compound-containing physiological saline used was at least 95%, and the relative radioactivity thereof was from 18.5 to 148 GBq/μmol; and from 1.11 to 2.22 MBq of the labeled compound was administered to one mouse. Regarding the assessment of the radioactivity deposition, the proportion of the radioactivity per the unit weight of the sample tissue to the overall radioactivity given to the test animal (% injected dose/g of tissue; % ID/g) was taken as the index. For measuring the radioactivity, used was a gamma counter (1480 WIZARD, by Perkin Elmer). The experiment protocol was as follows: A labeled compound was administered to mice via their tail vein. After 2 and 30 minutes, the cervical spine of the mouse was dislocated under ether anesthesia. Immediately, the blood was collected from its heart, and the whole brain (including cerebellum and brainstem) was taken out. The radioactivity and the tissue weight of each sample were measured, and from the data, % ID/g was computed.

T1 sequence (P05067 672-713 limits assumed): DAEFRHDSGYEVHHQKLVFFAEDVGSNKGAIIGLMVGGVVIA
T2 sequence (P05067 672-711): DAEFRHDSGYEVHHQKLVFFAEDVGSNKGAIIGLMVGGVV

| Structure (SMILES) | binding to amyloid β protein in the brain section of an Alzheimer disease patient [1] | binding to neurofibrillary tangle in the brain section of an Alzheimer disease patient [2] | Maximum Permissible Dose [3] | Brain Permeability of [^18F]-labeled Compound: Brain [6] | Brain Permeability of [^18F]-labeled Compound: Plasma [6] | further results |
| --- | --- | --- | --- | --- | --- | --- |
| CN1C=CC(=C/C=C2\C=Nc3ccccc32)C=C1 [THK-185, 3-[2-(1-methyl-1H-pyridin-4-ylidene)-ethylidene]-3H-indole] | bound to the amyloid β protein | bound to the amyloid β protein and the neurofibrillary tangle |  |  |  |  |
| CN(C)c1ccc(-c2nnc(-c3sc4ccccc4c3Cl)o2)cc1 [THK-258, [4-[5-(3-chloro-benzo[b]thiophen-2-yl)-[1,3,4]oxadiazol-2-yl]-phenyl]-dimethylamine] | bound to the amyloid β protein | bound to the amyloid β protein and the neurofibrillary tangle |  |  |  |  |
| CN1C=CC(=CC=C2C=CC(=O)C=C2)C=C1 [THK-317, 4-[2-(1-methyl-1H-pyridin-4-ylidene)-ethylidene]-cyclohexa-2,5-dienone] | bound to the amyloid β protein | bound to the amyloid β protein and the neurofibrillary tangle |  |  |  |  |
| OCC(CF)COc1ccc2nc(/C=C/c3cnc(N4CCOCC4)s3)oc2c1 (stereo not drawn) [THK-727, 2-fluoromethyl-3-[2-[2-(2-morpholin--yl-thiazol-5-yl)-vinyl]-benzoxazol-6-yloxy]-propan-1-ol] | The white space arrow indicates amyloid β protein | the white space arrow head indicates neurofibrillary tangle | ≧10 mg/kg |  |  | relative activity ([4]; irrespective of the absence or presence of S9mix): minus; activity at 10 µM ([5]; Congo red 0.1 μM, read-out: Binding Percentage of Compound in the presence of 0.1 μM CR): 73.6%; activity at 10 µM ([5]; Congo red 0.3 μM, read-out: Binding Percentage of Compound in the presence of 0.3 μM CR): 35%; activity at 10 µM ([5]; Congo red 1 μM, read-out: Binding Percentage of Compound in the presence of 1 μM CR): 3.1% |
| CNc1ncc(/C=C/c2nc3ccc(OC(CO)CF)cc3o2)s1 (stereo not drawn) [THK-761, (E)-6-[(1-fluoromethyl-2-hydroxy)ethoxy]-2-[2-[2-methylaminothiazol-5-yl]ethenyl]-benzoxazole] | The white space arrow indicates amyloid β protein |  | ≧10 mg/kg |  |  | relative activity ([4]; in the presence of S9mix): weak |
| CN(C)c1ncc(/C=C/c2nc3ccc(OC(CO)CF)cc3o2)s1 (stereo not drawn) [THK-763, (E)-6-[(1-fluoromethyl-2-hydroxy)ethoxy]-2-[2-[2-dimethylamino-thiazol-5-yl]ethenyl]benzoxazole] | The white space arrow indicates amyloid β protein |  | ≧10 mg/kg |  |  | relative activity ([4]; in the presence of S9mix): weak |
| FCCOc1ccc2nc(/C=C/c3cnc(N4CCOCC4)s3)oc2c1 [[^18F]THK-525] |  |  |  | 4.7 % ID/g or ml | 2.8 % ID/g or ml |  |
| OCC(CF)Oc1ccc2nc(/C=C/c3cnc(N4CCOCC4)s3)oc2c1 (stereo not drawn) [[^18F]THK-702] |  |  |  | 4.2 % ID/g or ml | 2.3 % ID/g or ml |  |
| OCC(CF)COc1ccc2nc(/C=C/c3cnc(N4CCOCC4)s3)oc2c1 (stereo not drawn) [[^18F]THK-727] |  |  |  | 4.1 % ID/g or ml | 2.9 % ID/g or ml |  |
| CN(C)c1ncc(/C=C/c2nc3ccc(OC(CO)CF)cc3o2)s1 (stereo not drawn) [[^18F]THK-763] |  |  |  | 4.6 % ID/g or ml | 3.7 % ID/g or ml |  |
